Measurements: PubChem BioAssay AID1963871 (Molecular Pharmacology Branch, DTP, NCI, 2024)

Tested on: KRAS-mutant PDC multicell tumor spheroid viability
Test: Anticancer human tumor 521955-158-R2-J5-PDC patient-derived pancreatic carcinoma cell line growth inhibition [KRAS2]
Details: for IC50: curve of first compound; for viability, T/C: stronger effect = lower value
Procedure, shortened: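 Combination screen of spheroid viability in tumor-cell co-cultures with endothelial (HUVEC) and mesenchymal stem cell stroma. Each agent was tested in half-log dilutions, topping at clinical Cmax or at 10 microM without a known Cmax.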

[1] = second compound 0.1 µM, first compound 0.0316 µM
[2] = second compound 0.1 µM, first compound 0.1 µM
[3] = second compound 0.1 µM, first compound 0.316 µM
[4] = second compound 0.1 µM, first compound 1 µM
[5] = second compound 0.1 µM, first compound 3.16 µM
[6] = second compound 0.316 µM, first compound 0.0316 µM
[7] = second compound 0.316 µM, first compound 0.1 µM
[8] = second compound 0.316 µM, first compound 0.316 µM
[9] = second compound 0.316 µM, first compound 1 µM
[10] = second compound 0.316 µM, first compound 3.16 µM
[11] = second compound 1 µM, first compound 0.0316 µM
[12] = second compound 1 µM, first compound 0.1 µM
[13] = second compound 1 µM, first compound 0.316 µM
[14] = second compound 1 µM, first compound 1 µM
[15] = second compound 1 µM, first compound 3.16 µM
[16] = second compound 3.16 µM, first compound 0.0316 µM
[17] = second compound 3.16 µM, first compound 0.1 µM
[18] = second compound 3.16 µM, first compound 0.316 µM
[19] = second compound 3.16 µM, first compound 1 µM
[20] = second compound 3.16 µM, first compound 3.16 µM
[21] = second compound 10 µM, first compound 0.0316 µM
[22] = second compound 10 µM, first compound 0.1 µM
[23] = second compound 10 µM, first compound 0.316 µM
[24] = second compound 10 µM, first compound 1 µM
[25] = second compound 10 µM, first compound 3.16 µM
[26] = second compound 0.1 µM, first compound 10 µM
[27] = second compound 0.316 µM, first compound 10 µM
[28] = second compound 1 µM, first compound 10 µM
[29] = second compound 3.16 µM, first compound 10 µM
[30] = second compound 10 µM, first compound 10 µM
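Also: viability read after seven days of drug exposure.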

Structure (SMILES)	IC50 (second compound 0.1 µM)	IC50 (second compound 0.316 µM)	IC50 (second compound 1 µM)	IC50 (second compound 3.16 µM)	IC50 (second compound 10 µM)	viability, T/C [1]	viability, T/C [2]	viability, T/C [3]	viability, T/C [4]	viability, T/C [5]	viability, T/C [6]	viability, T/C [7]	viability, T/C [8]	viability, T/C [9]	viability, T/C [10]	viability, T/C [11]	viability, T/C [12]	viability, T/C [13]	viability, T/C [14]	viability, T/C [15]	also measured
CC1COCCN1c1cc(-c2ccnn2C)c2ccnc(-c3ccn[nH]3)c2n1 (stereo not given) + COc1cc2nc(C)nc(NC(C)c3cc(N)cc(C(F)(F)F)c3)c2cc1OC1CCOC1	21.4 nM	21.7 nM	21.4 nM	23 nM	< 10 nM	31.8%	9.64%	12.1%	16.3%	20.9%	33%	8.19%	10.6%	15.9%	22.8%	27.7%	10.1%	11.7%	15.6%	21.9%	viability, T/C (second compound 0.1 µM, first compound 0.01 µM): 85.3%; viability, T/C (second compound 0.316 µM, first compound 0.01 µM): 85%; viability, T/C (second compound 1 µM, first compound 0.01 µM): 93.4%; viability, T/C (second compound 3.16 µM, first compound 0.01 µM): 97.4%; viability, T/C [16]: 31.6%; viability, T/C [17]: 7.75%; viability, T/C [18]: 10.1%; viability, T/C [19]: 16.6%; viability, T/C [20]: 23.1%; viability, T/C (second compound 10 µM, first compound 0.01 µM): 39.6%; viability, T/C [21]: 9.76%; viability, T/C [22]: 4.43%; viability, T/C [23]: 7.6%; viability, T/C [24]: 16%; viability, T/C [25]: 12.9%
CC1OCC2(CCN(c3cnc(Sc4ccnc(N)c4Cl)c(N)n3)CC2)C1N (stereo not given) + COc1cc2nc(C)nc(NC(C)c3cc(N)cc(C(F)(F)F)c3)c2cc1OC1CCOC1	> 10000 nM	> 10000 nM	> 10000 nM	> 10000 nM	4270 nM	87.6%	83.6%	77.6%	75.9%	72.5%	82.3%	97.1%	85.9%	71.9%	64.2%	105%	92.1%	82.4%	74.4%	72.1%	viability, T/C [26]: 56.6%; viability, T/C [27]: 55.4%; viability, T/C [28]: 62.5%; viability, T/C [16]: 111%; viability, T/C [17]: 102%; viability, T/C [18]: 88%; viability, T/C [19]: 83.8%; viability, T/C [20]: 80.3%; viability, T/C [29]: 84.6%; viability, T/C [21]: 90.4%; viability, T/C [22]: 84.7%; viability, T/C [23]: 76.9%; viability, T/C [24]: 65.9%; viability, T/C [25]: 58.5%; viability, T/C [30]: 35%
CCNC(=O)CC1N=C(c2ccc(Cl)cc2)c2cc(OC)ccc2-n2c(C)nnc21 (stereo not given) + COc1cc2nc(C)nc(NC(C)c3cc(N)cc(C(F)(F)F)c3)c2cc1OC1CCOC1	405 nM	293 nM	333 nM	320 nM	418 nM	90%	79.5%	52.6%	36.7%	32.4%	104%	89.9%	47%	30.8%	30%	89.2%	85.2%	50.1%	34.2%	28.2%	viability, T/C [26]: 26.9%; viability, T/C [27]: 26.6%; viability, T/C [28]: 28%; viability, T/C [16]: 98.5%; viability, T/C [17]: 87.7%; viability, T/C [18]: 48.4%; viability, T/C [19]: 39.6%; viability, T/C [20]: 28%; viability, T/C [29]: 30.8%; viability, T/C [21]: 105%; viability, T/C [22]: 96.5%; viability, T/C [23]: 49.9%; viability, T/C [24]: 33.4%; viability, T/C [25]: 18.6%; viability, T/C [30]: 8.29%
Cn1nccc1Nc1nccc(-c2cc3c(s2)C(C)(C)N(CCN2CCOCC2)C3=O)n1 + COc1cc2nc(C)nc(NC(C)c3cc(N)cc(C(F)(F)F)c3)c2cc1OC1CCOC1	355 nM	522 nM	574 nM	510 nM	104 nM	92.5%	77.9%	47.1%	36.8%	24.6%	104%	83.7%	57.2%	40%	23.8%	83.2%	87.6%	62%	37%	21.2%	viability, T/C [26]: 17.6%; viability, T/C [27]: 16.6%; viability, T/C [28]: 13.9%; viability, T/C [16]: 86%; viability, T/C [17]: 75.3%; viability, T/C [18]: 60.8%; viability, T/C [19]: 36.1%; viability, T/C [20]: 17.4%; viability, T/C [29]: 8.1%; viability, T/C [21]: 76.8%; viability, T/C [22]: 51%; viability, T/C [23]: 16.8%; viability, T/C [24]: 4.05%; viability, T/C [25]: 1.96%; viability, T/C [30]: 0.81%
